Here are results for one compound from patent US20220041559A1, “BENZO-AND PYRIDO-PYRAZOLES AS PROTEIN KINASE INHIBITORS” (ROTTAPHARM BIOTECH S.R.L., priority 2019, published 2022).

One experiment concerns the target human FynB (Homo sapiens, UniProt P06241). Kind of experiment: Inhibition of FynB-induced Tau(Y18)-phosphorylation (cell-based assay, HEK293). On the procedure:
HEK293 cells (Human Embryonic Kidney 293) were seeded at 6×10^5 in poly-D-lysine 12 w microplates and grown adherent in medium DMEM/10% FBS at 37° C. with 5% CO2. After 24 h, cells were transfected in order to over-express either constitutively active form of human FynB and Tau protein (isoform 0N4R), through an optimized Lipofectamine® 3000 Transfection protocol (Life Technologies™). A non-transfected sample (negative control) was included in every experiment.
Twenty-four hours from transfection, treatments of cells were performed by adding fresh medium containing diluent (DMSO 0.1% final concentration) or test compounds. The incubation was carried out for 6 or 24 hours at 37° C. with 5% CO2. All experimental conditions were performed in duplicate.
At the end of the incubation, the medium was removed and cellular lysates were obtained by adding M-PER lysis buffer containing a 1× Protease/Phosphatase inhibitors cocktail. Then, lysates were transferred into Eppendorf tubes, sonicated and stored at −80° C.
Protein content was measured by Bradford method. Lysates were analyzed by a customized ELISA assay for Tau phosphorylation (Tyrosine 18 residue-Fyn mediated) and Total amount determination. The net OD values were used to calculate the inhibitory effect of compounds.

The next experiment concerns U87MG. The experiment in a line: Cell viability, ViaCount assay, U87MG. In kind it is cell-based, human. Conditions: tested cell lines (U87MG, U373). As for the experimental part: U87MG: a human glioblastoma astrocytoma from ATCC. Grown in DMEM medium supplemented with 10% FBS at 37° C. with CO2.
Cell viability and total cell count was performed with ViaCount Assay on Guava® Systems, which was able to distinguish viable and non-viable cells based on differential permeabilities of two DNA-binding dyes in the Guava ViaCount® Reagent. 2×10^4 cancer cells were plated in 24 well in DMEM 10%. After 72 h cells were treated with the different compounds for 24, 72 h or 7 days, with a medium change and a second treatment with the product on day 4. At the end of the incubation period the analysis was done following the kit instructions.

SMILES strings stand for the structures.

Sequence of human FynB (P06241 271-524 limits assumed): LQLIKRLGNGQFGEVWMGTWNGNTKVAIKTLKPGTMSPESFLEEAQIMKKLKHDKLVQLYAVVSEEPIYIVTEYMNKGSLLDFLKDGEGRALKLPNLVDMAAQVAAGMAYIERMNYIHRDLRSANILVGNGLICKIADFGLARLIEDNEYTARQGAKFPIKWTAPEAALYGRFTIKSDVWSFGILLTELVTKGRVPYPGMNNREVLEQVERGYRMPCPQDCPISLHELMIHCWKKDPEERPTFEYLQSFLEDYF

The IC50 is the midpoint of a concentration-inhibition curve. A high value points to lower potency. Turning to `CN1CCC(c2ccc(C(=O)Nc3n[nH]c4nc(Nc5ccccc5F)ccc34)cc2)CC1` [Compound 5, N-(6-((2-fluorophenyl)amino)-1H-pyrazolo[3,4-b]pyridin-3-yl)-4-(1-methylpiperidin-4-yl)benzamide], half-maximal inhibition against human FynB (HEK293 over-expressing FynB and Tau 0N4R, incubation 6 or 24 hours, ELISA) (IC50) was put at 0.3 µM. The “Inhibition of FynB-induced Tau(Y18)-phosphorylation, result in words” value at human FynB (summary of Table 20) was “best inhibitors”. Moreover, in the experiment on U87MG, the “reduction of cell viability, result in words” value was “active in reducing cell viability”.
